Source: US20050002876A1, “Oral care methods and products” (priority 2003, published 2005)

System: human umbilical vein endothelial cells (HUVEC)
Test: Copper-induced IL-8 release from HUVEC (IL-8 ELISA)
Assay type: cell-based

Structure (SMILES)	IL-8 secretion as compared to controls incubated with water (50 μM CuCl2, 24 hours) [fold]	IL-8 secretion caused by CuCl2 (50 μM CuCl2 + 50, 100, 150 or 250 μM Syprine trientine hydrochloride, 24 hours, serum-free medium)
[Cl][Cu][Cl] [CuCl2]	> 2	
NCCNCCNCCN [trientine, N,N′-bis(2-aminoethyl)-1,2-ethanediamine]		significantly inhibited copper-induced endothelial cell IL-8 secretion
